Tests used:
solid tumor animal model = assay: Microdosing tumors with ferroptosis-inducing agents (implantable drug delivery system, cleaved caspase-3 / H&E staining); assay type: in vivo, C57BL6/J mice; details: for tumor response (cleaved caspase-3 staining: cell death, white blood cell recruitment): local sustained administration, 1-10 μM at the tumor site, 24 hours
Procedure: For the allograft study, cancer cell line-derived tumor cells were injected into the flanks of male C57BL6/J mice. Assays were initiated when the tumor diameter was approximately 6-7 mm.
Microdose drug delivery was performed for the assay described herein. The compounds in Table 22 were packed into device reservoirs using a tapered metal needle. Reservoirs were loaded for initial release of liproxstatin-1 (where included) followed by a 4-6 h delayed release of ferroptosis inducers. Devices were prepared for dose administration into mouse tumors. Devices delivered the ferroptosis inducing agent for 24-72 hours in the tissue. The tumor was then excised, and the tissue was snap frozen with liquid nitrogen. Tissue was sectioned using a standard cryotome, and tissue slices of 20 μm in thickness were collected from each reservoir for analysis by immunoassays, transcriptomics, and metabolomic assays.
A drug delivery system was applied to a: solid tumor animal model. Animals were administered (1) L-BSO or (2) L-BSO+liproxstatin-1 (lip-1) as a ferroptosis-rescue agent. Drugs were loaded into an implantable drug delivery system to achieve concentrations of 1-10 μM for both BSO+lip-1 at the tumor site. After 24 hours, tumors were removed and stained for cleaved caspase-3 to indicate cell death in the tumor (FIG. 2A). […] Therefore, ferroptosis can be induced by both local and systemic administration of BSO.
A drug delivery system was applied to a: solid tumor animal model. Animals were administered (1) ML-210 or (2) ML-210+liproxstatin-1 (lip-1), as a ferroptosis rescue agent. Drugs were loaded into an implantable drug delivery system to achieve concentrations of 1-10 μM for both ML-210 and ML-210+liproxstatin-1 (lip-1) at the tumor site. After 24 hours, tumors were removed and stained for cleaved caspase-3.
To achieve therapeutic doses of RSL3 in vivo, a drug delivery system was applied to a: solid tumor animal model. Animals were administered (1) RSL3 or (2) RSL3+liproxstatin (lip-1) as a ferroptosis rescue agent. Drugs were loaded into an implantable drug delivery system to achieve concentrations of 1-10 μM for both RSL-3 and RSL3 and lip-1 co-administration at the tumor site. After 24 hours of sustained administration, tumors were removed and stained for cleaved caspase-3 (FIG. 5A). Dashed lines indicate region of drug exposure.

cancer cells = assay: Cell line profiling with a ferroptosis-inducing agent with and without a rescue agent (CellTiter-Glo); assay type: cell-based, human; details: for fractional viability of cancer cells with fer-1 co-treatment: +1.5 μM fer-1
Procedure: Cell viability assays are performed by seeding 1,000 cells per well (30 μl volume) in opaque white 384-well plates (Corning). Cells are allowed to adhere for 24 h, after which they are exposed to compounds for 72 hours. DMSO stock solutions of compounds are added to cells using a CyBio Well Vario liquid dispenser (Analytik Jena AG). Cellular ATP levels are measured using CellTiter-Glo (Promega) as a surrogate for viability. Rescue assays are performed using rescue agents-ferrostatin-1 (fer-1, 1.5 μM), liproxstatin-1 (lip-1, 1 μM), deferoxamine (DFO, 50 μM), and other ferroptosis inhibitors added to cells at the time of addition to assay plates. Dose-response curves for BSO and RSL3 are shown in FIG. 4 with and without anti-ferroptosis rescue agent treatment (indicated as no treatment or +1.5 μM fer-1).

SMILES | fractional viability of tumor (solid tumor animal model; compared with BSO+fer-1 treated sections of the tumor) | tumor response (cleaved caspase-3 staining: cell death, white blood cell recruitment) (solid tumor animal model) | fractional viability of cancer cells with fer-1 co-treatment (cancer cells) | rescue from cell death (cancer cells; RSL3 and BSO treated tumors in vivo, 1.5 μM fer-1) | ferroptosis induction (cancer cells; dose-response, with and without 1.5 μM fer-1)
CCCCS(=N)(=O)CC[C@H](N)C(=O)O (some centres unmarked) [BSO, buthionine sulfoximine] | significant reductions in fractional viability | recruitment of white blood cells to the tumor indicating immune cell recruitment and cell death at the tumor site | not observed |  | 
CCOC(=O)c1ccc(NC2CCCCC2)c(N)c1 [Ferrostatin-1, ferrostatin-1] |  |  |  | prevents cell death | 
Cc1onc(C(=O)N2CCN(C(c3ccc(Cl)cc3)c3ccc(Cl)cc3)CC2)c1[N+](=O)[O-] [ML-210] |  | recruitment of white blood cells to the tumor indicating immune cell recruitment and cell death at the tumor site |  |  | 
COC(=O)c1ccc([C@H]2c3[nH]c4ccccc4c3C[C@H](C(=O)OC)N2C(=O)CCl)cc1 [RSL3, (1S,3R)-RSL3] |  | White blood cell recruitment and cell death were prominent | reduction in the fractional viability of cancer cells |  | robust inducer of ferroptosis

From patent publication US20260034094A1, “COMPOSITIONS AND METHODS FOR INDUCING FERROPTOSIS” (Kojin Therapeutics, Inc., priority 2022, published 2026)
